Activity calls are given as the source filed them. The calls are words filed in the database; no cut-off is given here.
Key:
Assay type in all cases: functional, organism-based
Mus musculus [1] = assay: Induction of loss of body flaccidness in ddY mouse at 100 ug, icv
Mus musculus [2] = assay: Induction of loss of body motion in ddY mouse at 100 ug, icv
Mus musculus [3] = assay: Effect on behavior in ddY mouse at 100 ug, icv
Mus musculus [4] = assay: Suppression of voluntary movements in ddY mouse at 100 ug, icv

| Compound | Activity (Mus musculus [3]) | also measured |
| --- | --- | --- |
| O=C(O)C[C@@]12O[C@H]3C=CCN[C@H]3[C@@H]1C(=O)N[C@H]2C(=O)O | – | Activity (Mus musculus [1]): Active; Activity (Mus musculus [2]): Active |
| O=C(O)C[C@@]12O[C@H]3CC(=O)O[C@H]3[C@@H]1C(=O)N[C@H]2C(=O)O | inactive | – |
| O=C(O)C[C@@]12O[C@H]3C=CC(=O)O[C@H]3[C@@H]1C(=O)N[C@H]2C(=O)O | inactive | – |
| O=C(O)C[C@@]12O[C@H]3C=CCO[C@H]3[C@@H]1C(=O)N[C@H]2C(=O)O | – | Activity (Mus musculus [4]): Active |
| C=C[C@@H]1O[C@@]2(CC(=O)O)[C@H](C(=O)O)NC(=O)[C@H]2[C@@H]1O | inactive | – |

Reference: ChEMBL document CHEMBL3400061, “Structure-activity relationships of IKM-159: Diverted synthesis and biological evaluation of a series of C5-oxy analogs” (Bioorg Med Chem Lett, 2015)
